Experiment [1] relates to HT29 human colon cancer cells. The experiment in a line: Cell proliferation (MTT) assay, HT29 cells. The conditions noted are these: MTT, 24 hour incubation period. Format: cell-based. The procedure:
6.1 Cell Proliferation (MTT) Assay Single cell suspensions of viable trypsinised cells were seeded into 96-well tissue culture plates at a density of 2×10^3 cells per well in a volume of 100 μl of a suitable culture media supplemented with heat inactivated foetal calf serum (FCS) (e.g., Dulbecco's Modified Eagles Medium (DMEM), with 10% v/v FCS, 1% L-glutamine, 2% (v/v) Hepes, and antibiotics). A set of triplicate wells was prepared for each concentration of the peptide dendrimer being tested. Additional sample wells containing untreated cells or media alone were set up in each treatment plate and processed in parallel as reference controls. A zero-time plate of untreated cells and media-alone wells was simultaneously prepared and an MTT assay carried out on this plate at the time of addition of the kinase inhibitor (i.e., polypeptide or dendrimer) to treatment plates. All plates were cultured for 24 hours before addition of the test dendrimer.
To prepare the MTT solution 100 mg of MTT (3-(4,5-dimethylthiazolyl-2)-2,5-diphenyltetrazolium bromide) (Cat #. M-128, Sigma, St Louis Mo.), is mixed with 20 ml of PBS at pH 7.4. The resulting solution is filter sterilized (0.2 μM syringe filter) and stored at 4° C. protected from light until use. MTT substrate is cleaved in growing cells to yield a water insoluble salt. After solubilisation of the salt crystals, a coloured product is produced the measurement of which allows quantitation of the proliferative activity of the cultured cells.
Appropriate concentrations of the kinase inhibitor were prepared by dilution of freshly prepared sterile 1 mM stock solutions into cell culture media to give a final well volume of 200 μl containing 10% v/v FCS. The zero-plate was processed by addition of MTT at this time. Cell culture was continued for a further 24 or 48 hours before addition of 20 μl of MTT in PBS (5 mg/ml, 0.2 um filter sterilised). The MTT cell proliferation assay measures cell proliferation rate and, in instances where cell viability is compromised, the assay indicates a comparative reduction in cell viability. After a 3 hour incubation in the presence of MTT (5% CO2 in air at 37° C.), plates were centrifuged at 450 g for 5 minutes, supernatant was removed by gentle suction and precipitated tetrazolium salt resuspended into 150 μl DMSO:glycine (0.1M glycine, 0.1M NaCl pH 10.5) (6:1 v/v) solution. Plates were gently vortexed to complete solubilisation of crystalline material and absorbance was read at 550 nm using a microplate reader. Sample data were processed to determine the comparative growth of treated samples relative to untreated controls.
HT29 cells were cultured for 48 hours in the presence of selected dendrimers and proliferation of the cells was assessed by MTT assay essentially as described in Example 6.1. The results were calculated as percentage proliferation of control cells (not treated with dendrimer).

Experiment [2] concerns ERK1/2 activity in skin fibroblast cells. The experiment in a line: Phospho-ERK1/2 upon FCS stimulation, skin fibroblast cells. In kind it is cell-based. To be noted: compared to HT29 cells, data not shown.
In experiment [3] the test system is ERK1/2 activation in HT29 cells. Nature of the experiment: Phospho-ERK1/2 ELISA upon serum (FCS) stimulation, HT29 cells. Format: cell-based, human. The procedure: HT29 cells were harvested using 0.5% trypsin EDTA (Invitrogen) and 5000 cells in 200 μL media were plated into each well of a clear NUNC tissue culture treated 96 well plate (NUNC). Cells were seeded in DMEM media (Invitrogen) supplemented with 10% (v/v) heat inactivated foetal calf serum (FCS, Invitrogen), 1% (v/v) L-glutamine (Invitrogen) and 2% (v/v) 1M Hepes buffer solution (Invitrogen). Cells were then incubated overnight at 37° C.
The following day, the growth medium was replaced with 100 μL of DMEM supplemented with 1% (v/v) L-glutamine and 2% (v/v) 1M HEPES buffer solution (Invitrogen) (serum free medium, SFM) and plates incubated for a further 24 hours at 37° C.
The dendrimers were re-constituted in SFM and the desired concentration was added to the plate in 100 μL SFM to make the total volume of each well 200 μL. The control wells (minus peptide) had only SFM added. The assay plate was then incubated at 37° C. for 4 hours. In studies in which cells were subjected to stimulation by serum, 22 μL FCS (10% v/v final concentration) was added to wells for the final 10 minutes at 37° C. SFM only (22 μL) was added to control wells.
Phospho-ERK levels were evaluated by ELISA utilising an Active Motif FACE ERK1/2 ELISA kit (Australian Biosearch, WA, Australia) as per the manufacturers instructions. Briefly, media was replaced and cells fixed with 4% formaldehyde in PBS, and after a one hour incubation with antibody blocking buffer (supplied), the primary phospho-ERK antibody was added and the plate incubated overnight at 4° C. Antibody dilution buffer only was added to control test wells containing no primary antibody. The following day, HRP-conjugated secondary antibody was added to all wells for one hour before plates were developed and the absorbance measured at 450 nm using a Labsystems Multiskan EX microplate reader (Labsystems, Thermo Labsystems, UK).
For orientation: In an ELISA, binding on a coated surface is turned into a signal by an enzyme label.

Each structure is given as a SMILES string. “Also recorded” adds a separate entry of the source.

As to `CC(C)C[C@H](NC(=O)[C@@H]1CCCN1C(=O)[C@H](CC(N)=O)NC(=O)[C@H](CCCCN)NC(=O)[C@H](C)NC(=O)[C@H](CCCCN)NC(=O)[C@H](CO)NC(=O)[C@@H](N)CCCNC(=N)N)C(=O)N[C@@H](Cc1ccc(O)cc1)C(=O)N[C@@H](CCCNC(=N)N)C(=O)NCCCC[C@H](NC(=O)[C@H](CCCNC(=N)N)NC(=O)[C@H](Cc1ccc(O)cc1)NC(=O)[C@H](CC(C)C)NC(=O)[C@@H]1CCCN1C(=O)[C@H](CC(N)=O)NC(=O)[C@H](CCCCN)NC(=O)[C@H](C)NC(=O)[C@H](CCCCN)NC(=O)[C@H](CO)NC(=O)[C@@H](N)CCCNC(=N)N)C(=O)NCCCC[C@H](NC(=O)[C@H](CCCCNC(=O)[C@H](CCCNC(=N)N)NC(=O)[C@H](Cc1ccc(O)cc1)NC(=O)[C@H](CC(C)C)NC(=O)[C@@H]1CCCN1C(=O)[C@H](CC(N)=O)NC(=O)[C@H](CCCCN)NC(=O)[C@H](C)NC(=O)[C@H](CCCCN)NC(=O)[C@H](CO)NC(=O)[C@@H](N)CCCNC(=N)N)NC(=O)[C@H](CCCNC(=N)N)NC(=O)[C@H](Cc1ccc(O)cc1)NC(=O)[C@H](CC(C)C)NC(=O)[C@@H]1CCCN1C(=O)[C@H](CC(N)=O)NC(=O)[C@H](CCCCN)NC(=O)[C@H](C)NC(=O)[C@H](CCCCN)NC(=O)[C@H](CO)NC(=O)[C@@H](N)CCCNC(=N)N)C(=O)NCCCC[C@H](NC(=O)[C@H](CCCCNC(=O)[C@H](CCCCNC(=O)[C@H](CCCNC(=N)N)NC(=O)[C@H](Cc1ccc(O)cc1)NC(=O)[C@H](CC(C)C)NC(=O)[C@@H]1CCCN1C(=O)[C@H](CC(N)=O)NC(=O)[C@H](CCCCN)NC(=O)[C@H](C)NC(=O)[C@H](CCCCN)NC(=O)[C@H](CO)NC(=O)[C@@H](N)CCCNC(=N)N)NC(=O)[C@H](CCCNC(=N)N)NC(=O)[C@H](Cc1ccc(O)cc1)NC(=O)[C@H](CC(C)C)NC(=O)[C@@H]1CCCN1C(=O)[C@H](CC(N)=O)NC(=O)[C@H](CCCCN)NC(=O)[C@H](C)NC(=O)[C@H](CCCCN)NC(=O)[C@H](CO)NC(=O)[C@@H](N)CCCNC(=N)N)NC(=O)[C@H](CCCCNC(=O)[C@H](CCCNC(=N)N)NC(=O)[C@H](Cc1ccc(O)cc1)NC(=O)[C@H](CC(C)C)NC(=O)[C@@H]1CCCN1C(=O)[C@H](CC(N)=O)NC(=O)[C@H](CCCCN)NC(=O)[C@H](C)NC(=O)[C@H](CCCCN)NC(=O)[C@H](CO)NC(=O)[C@@H](N)CCCNC(=N)N)NC(=O)[C@H](CCCNC(=N)N)NC(=O)[C@H](Cc1ccc(O)cc1)NC(=O)[C@H](CC(C)C)NC(=O)[C@@H]1CCCN1C(=O)[C@H](CC(N)=O)NC(=O)[C@H](CCCCN)NC(=O)[C@H](C)NC(=O)[C@H](CCCCN)NC(=O)[C@H](CO)NC(=O)[C@@H](N)CCCNC(=N)N)C(=O)NCCC(N)=O` [Dend 8-10(4)], the “inhibition of proliferation of HT29 colon cancer cells” value in experiment [1] was “substantially more effective at inhibiting cell growth/proliferation”. The “inhibition of ERK1/2 activity upon FCS stimulation, skin fibroblast cells” value in experiment [2] is “much less inhibition”. For the same compound, the “greater inhibition of activated phospho-ERK 1/2 than the closest test agent (TAT-G RSKAKNPLYR)” value in experiment [3] (5 μM, 1 hour, FCS stimulated HT29 cells) is given as “at least 30%”. Further, the “inhibition of activated phospho-ERK1/2” value in experiment [3] (5 μM, 4 hours, HT29 cells, data not shown) was “approx. 95%”. The “ERK1/2 activation (phospho-ERK1/2 levels) upon serum (FCS) stimulation, HT29 cells” value in experiment [3] (exposure to dendrimer for 4 hours prior to FCS) is “abolished ERK1/2 activation in a dose-dependent manner; also recorded: significantly reduced”.

For the origin of these results see US20120277161A1, “INHIBITION OF MULTIPLE CELL ACTIVATION PATHWAYS” (INTER-K PTY LIMITED, priority 2009, published 2012).
